Test results taken from patent US20230321094A1, “COMBINATION THERAPIES WITH OLIG2 INHIBITORS” (Curtana Pharmaceuticals, Inc., priority 2020, published 2023).

System: NX18 cells
Experiment: Glioblastoma neurosphere cell viability with the test compound and an mTOR inhibitor, Cell TiterGlo
Assay type: cell-based
Conditions: NX18 neurospheres, 72 hours, normalized to DMSO vehicle; for cytotoxicity at 0.01 µM: mTOR inhibitor alone, final concentration 10 nM, read-out: percent inhibition of cell viability, mTOR inhibitor alone; for percent inhibition of cell viability, Combined: named mTOR inhibitor (10 nM) combined with test compound @ 3 μM
Experimental: After another 72 hours, cell viability was determined using the Cell TiterGlo kit (#G7570, Promega, Madison. WI) following the manufacturer's instructions on a Tecan M200 Pro Plate Reader (Tecan, Mannedorf, CH). Percent viable cells were normalized against vehicle control (DMSO set as 100%).

Row | Compound | cytotoxicity at 0.01 µM [%] | percent inhibition of cell viability, Combined [%] | cytotoxicity at 3 µM (test compound alone at 3 μM, read-out: percent inhibition of cell viability, Test compound @ 3 μM) [%]
1 | CO[C@H]1C[C@@H]2CC[C@@H](C)[C@@](O)(O2)C(=O)C(=O)N2CCCC[C@H]2C(=O)O[C@H]([C@H](C)C[C@@H]2CC[C@@H](O)[C@H](OC)C2)CC(=O)[C@H](C)/C=C(\C)[C@@H](O)[C@@H](OC)C(=O)[C@H](C)C[C@H](C)/C=C/C=C/C=C/1C [Rapamycin] | 41 | 61 | –
2 | Cc1cc(NCCCN(C)C)nc(NC(=O)Nc2ccc(Cl)c(Cl)c2)n1 [Test compound] | – | – | 30
3 | CO[C@H]1C[C@@H]2CC[C@@H](C)[C@@](O)(O2)C(=O)C(=O)N2CCCC[C@H]2C(=O)O[C@H]([C@H](C)C[C@@H]2CC[C@@H](OCCO)[C@H](OC)C2)CC(=O)[C@H](C)/C=C(\C)[C@@H](O)[C@@H](OC)C(=O)[C@H](C)C[C@H](C)/C=C/C=C/C=C/1C [Everolimus] | 45 | 60 | –
